Experimental data as given in PMC4604124, “In Vitro Characterization of the Pharmacological Properties of the Anti-Cancer Chelator, Bp4eT, and Its Phase I Metabolites” (PLoS ONE, 2015).
Where “and” joins values, the source holds several entries; their conditions need not be identical. Equal values may be shown once. Read-outs that look alike come from different tables or passages of the source.

What was measured:
[1] = tested on: MCF-7 human breast adenocarcinoma cells; experiment: MTT cytotoxicity assay, MCF-7 cells; type: cell-based; details: for IC50: MTT, read-out: IC50
Procedure: (§1) For cytotoxicity experiments, cancer cells were seeded at a density of 5,000 (MCF-7), 10,000 (HL-60) or 2,000 cells/well (HCT116 and A549) in 96-well plates (TPP) for 24 h/37°C prior to the addition of examined agents. The non-cancerous cells, 3T3 and H9c2 cells, were cultured for 24 h/37°C in 96-well plates at a density of 10,000 cells/well, the medium was then changed to serum- and pyruvate-free DMEM (Sigma-Aldrich) and incubated with the cells for another 24 h/37°C. The cytotoxic effects of Bp4eT and its metabolites were studied at different concentrations after a 72 h/37°C incubation. In order to aid the dissolution of the lipophilic ligands, 0.1% dimethyl sulfoxide (v/v) (DMSO; Sigma-Aldrich) was present in the culture medium of all groups. At this concentration, DMSO had no effect on cellular proliferation or viability.
(§2) The viability of cells were determined using an MTT assay (Sigma-Aldrich) according to previously established methods. The optical density of soluble MTT was measured at λ = 570 nm, subtracting the λ = 690 nm background using a Tecan Infinite 200M plate reader (Tecan Group, Männedorf, Switzerland). The viability or proliferation of experimental groups was expressed as a percentage of the untreated controls (100%).
(§3) SigmaStat for Windows 3.5 (Systat Software, San Jose, CA, USA) statistical software package was utilized to analyze results. The data are expressed as the mean ± SD of a given number of experiments. Statistical significance was determined using a one-way ANOVA with a Bonferroni post-hoc test or Student’s t-test. The results were considered to be statistically significant when p < 0.05. The IC50 values were calculated using CalcuSyn 2.0 software (Biosoft, Cambridge, UK). Cell cycle analysis was evaluated using MultiCycle AV Software (Phoenix Flow Systems, San Diego, CA, USA).

[2] = tested on: A549 human lung adenocarcinoma cells; experiment: MTT cytotoxicity assay, A549 cells; type: cell-based; details: for IC50: MTT
Procedure: as §1, §2, §3

[3] = tested on: MCF-7 cells prelabeled with 59Fe2-transferrin; experiment: Mobilization (efflux) of cellular 59Fe; type: cell-based, human; parameters: Efflux 59Fe / Efflux 59Fe, Ave: unit not given here
Excerpt: (§4) Human transferrin (Sigma) was labeled with ^56Fe or ^59Fe (PerkinElmer, Massachusetts, USA) to produce ^56Fe2-transferrin or ^59Fe2-transferrin (^59Fe2-Tf), respectively, with a final specific activity of 500 pCi/pmol Fe, as previously described. Unbound ^59Fe was removed by exhaustive vacuum dialysis against a large excess of 0.15 M NaCl buffered to pH 7.4 with 1.4% NaHCO3 by standard methods.
To examine the ability of studied compounds to mobilize cellular ^59Fe from MCF-7 cells, iron efflux experiments were performed using established techniques. In brief, after pre-labeling confluent MCF-7 cells on 6-well plates with 0.75 μM ^59Fe2-Tf for 3 h/37°C, the cells were washed four times with ice-cold PBS and then subsequently incubated with 25 μM of Bp4eT or its metabolites for 3 h/37°C. The overlying medium containing released ^59Fe was then decanted from the cells. Radioactivity was measured in both the cells and the supernatant using a γ-scintillation counter (Wallac Wizard 3, Turku, Finland).

MCF-7 cells [4] = experiment: Cellular 59Fe uptake from 59Fe2-transferrin; type: cell-based, human; parameters: key to Uptake 59Fe, Ave / Uptake 59Fe: % of internalized 59Fe in untreated control cells; details: Control Ave = 100
Excerpt: as §4
The ability of the chelators to prevent cellular ^59Fe uptake from ^59Fe2-transferrin was examined using standard techniques. In brief, confluent MCF-7 cells in 6-well plates were incubated with 0.75 μM ^59Fe2-Tf for 3 h/37°C in the presence of Bp4eT or its metabolites (25 μM). The cells were then washed four times with ice-cold PBS and the level of internalized ^59Fe was determined by incubating the cell monolayer for 30 min/4°C with the general protease, Pronase (1 mg/mL; Sigma-Aldrich). The cells were then removed from the monolayer with a plastic spatula on ice and centrifuged for 1 min/12,000 x g/4°C. The supernatant represents membrane-bound, Pronase-sensitive ^59Fe that was released by the protease, while the Pronase-insensitive fraction represents internalized ^59Fe. The amount of internalized ^59Fe was expressed as a percentage of ^59Fe internalized by control (untreated) cells.

MCF-7 cells [5] = experiment: Cell cycle analysis by flow cytometry (propidium iodide); type: cell-based, human; details: 0.1 μM, 72 h, control 33%
Procedure: To examine the effect of the agents on the cell cycle, MCF-7 cells were seeded in 60 mm Petri dishes at a density of 240,000 cells/dish and incubated with Bp4eT or its metabolites for 72 h/37°C. The cells were then harvested, fixed by ethanol and stained by propidium iodide (Molecular Probes, Eugene, OR, USA) for 30 min/37°C, as described previously. Cells were analyzed using Accuri C6 flow cytometer (Becton Dickinson and Company, San Jose, CA USA). Propidium iodide was excited at λex = 488 nm and fluorescence analyzed at λem = 585 nm (FL-2) with a total of 10,000 events collected per analysis.
as §3

[6] = single replicate (three per date)

Q: For `CCNC(=O)NN=C(c1ccccc1)c1ccccn1` [E-Bp4eS, 2-benzoylpyridine 4-ethylsemicarbazone], which “Therapeutic index, IC50 non-cancerous cells / IC50 neoplastic cells” value ([1]; 3T3/MCF-7) is on record?
A: >4.8

Q: What about the “Therapeutic index, IC50 non-cancerous cells / IC50 neoplastic cells” value ([1]; H9c2/MCF-7) of the same compound?
A: 4.2

Q: And the IC50 ([1]; Homo sapiens, MCF7, 72 h, MCF-7, 72 h/37°C, mean ± SD, n ≥ 4)?
A: 208 ± 43.9 µM

Q: And the IC50 ([1]; Homo sapiens, MCF7, MCF-7, 5 000 b/j, průměr (mean))?
A: 209 µM

Q: And the IC50 ([1]; Homo sapiens, MCF7, MCF-7, 5 000 b/j, single experiment (by date))?
A: 194 µM

Q: What about the IC50 ([1]; MCF-7, 5 000 b/j, single experiment (by date)) of the same compound?
A: 169 µM and 199 µM and 271 µM

Q: What about the “MTT, value relative to 0 μM = 100” value ([1]; MCF-7, 5 000 b/j, koncentrace 1 μM, průměr (mean)) of the same compound?
A: 97.81

Q: What about the “MTT, value relative to 0 μM = 100” value ([1]; MCF-7, 5 000 b/j, koncentrace 1 μM, single experiment (by date)) of the same compound?
A: 92.729 and 97.0185 and 91.1778 and 97.3834 and 110.755

Q: What about the “MTT, value relative to 0 μM = 100” value ([1]; MCF-7, 5 000 b/j, koncentrace 3 μM, průměr (mean)) of the same compound?
A: 98.68

Q: What about the “MTT, value relative to 0 μM = 100” value ([1]; MCF-7, 5 000 b/j, koncentrace 3 μM, single experiment (by date)) of the same compound?
A: 98.4078 and 88.0788 and 100.293 and 107.936

Q: And the “MTT, value relative to 0 μM = 100” value ([1]; MCF-7, 5 000 b/j, koncentrace 10 μM, průměr (mean))?
A: 97.39

Q: And the “MTT, value relative to 0 μM = 100” value ([1]; MCF-7, 5 000 b/j, koncentrace 10 μM, single experiment (by date))?
A: 92.0003 and 97.1637 and 90.3424 and 98.5326 and 108.927

Q: What about the “MTT, value relative to 0 μM = 100” value ([1]; MCF-7, 5 000 b/j, koncentrace 30 μM, průměr (mean)) of the same compound?
A: 96.90

Q: What about the “MTT, value relative to 0 μM = 100” value ([1]; MCF-7, 5 000 b/j, koncentrace 30 μM, single experiment (by date)) of the same compound?
A: 97.756 and 80.695 and 97.8856 and 111.258

Q: What about the “MTT, value relative to 0 μM = 100” value ([1]; MCF-7, 5 000 b/j, koncentrace 100 μM, průměr (mean)) of the same compound?
A: 90.08

Q: And the “MTT, value relative to 0 μM = 100” value ([1]; MCF-7, 5 000 b/j, koncentrace 100 μM, single experiment (by date))?
A: 88.6813 and 85.2546 and 75.1399 and 92.8747 and 108.447

Q: What about the “MTT, value relative to 0 μM = 100” value ([1]; MCF-7, 5 000 b/j, koncentrace 300 μM, průměr (mean)) of the same compound?
A: 23.35

Q: And the “MTT, value relative to 0 μM = 100” value ([1]; MCF-7, 5 000 b/j, koncentrace 300 μM, single experiment (by date))?
A: 24.0916 and 23.1141 and 17.816 and 28.3884

Q: And the “MTT, value relative to 0 μM = 100” value ([1]; MCF-7, 5 000 b/j, koncentrace 1000 μM, průměr (mean))?
A: 23.56

Q: What about the “MTT, value relative to 0 μM = 100” value ([1]; MCF-7, 5 000 b/j, koncentrace 1000 μM, single experiment (by date)) of the same compound?
A: 23.4887 and 24.7991 and 25.8548 and 20.0906

Q: What about the “Therapeutic index, IC50 non-cancerous cells / IC50 neoplastic cells” value ([2]; 3T3/A549) of the same compound?
A: >4.0

Q: And the IC50 ([2]; A549, 72 h/37°C, mean ± SD, n ≥ 4)?
A: 248 ± 28.4 µM

Q: And the “MTT, relative to control (0 = 100)” value ([2]; A549, 2 000 b/j, 1 μM, průměr (mean), sheet E-Bp4eS)?
A: 93.23

Q: And the “MTT, relative to control (0 = 100)” value ([2]; A549, 2 000 b/j, 1 μM, single experiment (date), sheet E-Bp4eS)?
A: 97.4794 and 93.8067 and 89.4519 and 90.2593 and 95.1529

Q: What about the “MTT, relative to control (0 = 100)” value ([2]; A549, 2 000 b/j, 3 μM, průměr (mean), sheet E-Bp4eS) of the same compound?
A: 94.11

Q: And the “MTT, relative to control (0 = 100)” value ([2]; A549, 2 000 b/j, 3 μM, single experiment (date), sheet E-Bp4eS)?
A: 94.6678 and 89.857 and 93.9888 and 97.9391

Q: And the “MTT, relative to control (0 = 100)” value ([2]; A549, 2 000 b/j, 10 μM, průměr (mean), sheet E-Bp4eS)?
A: 92.21

Q: And the “MTT, relative to control (0 = 100)” value ([2]; A549, 2 000 b/j, 10 μM, single experiment (date), sheet E-Bp4eS)?
A: 87.4036 and 92.1017 and 93.2476 and 93.9742 and 94.3384

Q: And the “MTT, relative to control (0 = 100)” value ([2]; A549, 2 000 b/j, 30 μM, průměr (mean), sheet E-Bp4eS)?
A: 90.64

Q: And the “MTT, relative to control (0 = 100)” value ([2]; A549, 2 000 b/j, 30 μM, single experiment (date), sheet E-Bp4eS)?
A: 90.1965 and 95.4707 and 85.9691 and 88.5685 and 92.9924

Q: And the “MTT, relative to control (0 = 100)” value ([2]; A549, 2 000 b/j, 100 μM, průměr (mean), sheet E-Bp4eS)?
A: 73.00

Q: What about the “MTT, relative to control (0 = 100)” value ([2]; A549, 2 000 b/j, 100 μM, single experiment (date), sheet E-Bp4eS) of the same compound?
A: 74.3256 and 77.7533 and 70.4536 and 74.7606 and 67.6889

Q: And the “MTT, relative to control (0 = 100)” value ([2]; A549, 2 000 b/j, 300 μM, průměr (mean), sheet E-Bp4eS)?
A: 38.58

Q: And the “MTT, relative to control (0 = 100)” value ([2]; A549, 2 000 b/j, 300 μM, single experiment (date), sheet E-Bp4eS)?
A: 29.8381 and 26.5697 and 49.6192 and 42.8896 and 44.0078

Q: What about the “MTT, relative to control (0 = 100)” value ([2]; A549, 2 000 b/j, 1000 μM, průměr (mean), sheet E-Bp4eS) of the same compound?
A: 20.68

Q: And the “MTT, relative to control (0 = 100)” value ([2]; A549, 2 000 b/j, 1000 μM, single experiment (date), sheet E-Bp4eS)?
A: 19.2379 and 16.653 and 18.6303 and 21.7843 and 27.0728

Q: What about the IC50 ([2]; A549, 2 000 b/j, single experiment (date), sheet E-Bp4eS) of the same compound?
A: 234 µM and 239 µM and 259 µM and 291 µM

Q: What about the “Therapeutic index, IC50 non-cancerous cells / IC50 neoplastic cells” value ([2]; H9c2/A549) of the same compound?
A: 3.6

Q: And the IC50 ([2]; Homo sapiens, A549, A549, 2 000 b/j, single experiment (date), sheet E-Bp4eS)?
A: 217 µM

Q: What about the “Efflux 59Fe, Ave” value ([3]; average of all replicates) of the same compound?
A: 3.661

Q: And the “Efflux 59Fe” value [3, 6]?
A: 4.9211 and 3.6997 and 3.3917 and 3.5987 and 3.8929 and 3.2529 and 3.6068 and 3.4574 and 3.1235

Q: What about the “Uptake 59Fe, Ave” value (MCF-7 cells [4]; average of all replicates) of the same compound?
A: 105.146

Q: And the “Uptake 59Fe” value (MCF-7 cells [4]; [6])?
A: 102.106 and 110.477 and 102.867 and 98.5761 and 110.59 and 101.139 and 107.081 and 112.704 and 100.772

Q: What about the “Percentage of cells in the G2/M phase” value (MCF-7 cells [5]) of the same compound?
A: slight, but significant (p < 0.01–0.05) decrease
